This is an account of results in US8993604B2, “Treatment and prevention of dengue virus infections” (Siga Technologies, Inc., priority 2009, dated 2015).

The first test deals with Dengue-2 (Strain New Guinea C). The test can be described thus: Viral yield assay in Vero cells. The following applies: Dengue virus, Vero, 48 h, read-out: Activity (anti-dengue 2 viral activity, EC50 class). The test is classed as cell-based. The procedure:
Compounds that were active in the primary screen were tested for activity in viral yield assays. […] Vero cells in 12-well plates were infected with dengue-2 virus at a multiplicity of infection (MOI) of 0.1, treated with compound (or DMSO as a control), incubated at 37° C., harvested 48 hours post infection and titered on Vero cells as described above. The EC50 was calculated through ExcelFit. Activities against other serotypes of dengue virus were determined in a similar way.
With `O=C(Nc1ccc(-c2nc3ccccc3s2)cc1)c1ccc(S(=O)(=O)N2CCCCC2)cc1` [Compound 17, N-(4-Benzothiazol-2-yl-phenyl)-4-(piperidine-1-sulfonyl)-benzamide], the EC50 (in general, the concentration at which the effect is half-maximal) lay in the range of 10 to 25 µM.

The same test, now with this note: Dengue virus; Vero cells, MOI 0.1, harvested 48 hours post infection; read-out: Activity (anti-dengue 2 viral activity, EC50 class).
Turning to `COc1ccc(C(=O)Nc2ccc(-c3nc4ccccc4s3)c(O)c2)cc1` [Compound 1, N-(4-Benzothiazol-2-yl-3-hydroxy-phenyl)-4-methoxy-benzamide], the half-maximal effective concentration (EC50) is less than 1 µM.

`O=C(Nc1ccc(-c2nc3ccccc3s2)cc1)c1ccc2c(c1)OCCO2` [Compound 2, 2,3-Dihydro-benzo[1,4]dioxine-6-carboxylic acid (4-benzothiazol-2-yl-phenyl)-amide]: the EC50 is less than 1 µM.

Regarding `COc1ccccc1C(=O)Nc1cccc(-c2nc3ccccc3s2)c1` [Compound 4, N-(3-Benzothiazol-2-yl-phenyl)-2-methoxy-benzamide], the half-maximal effective concentration (EC50) is less than 1 µM.

As to `COc1ccc(C(=O)Nc2ccc(-c3nc4ccccc4s3)c(Cl)c2)cc1OC` [Compound 5, N-(4-Benzothiazol-2-yl-3-chloro-phenyl)-3,4-dimethoxy-benzamide], the EC50 was less than 1 µM.

Consider `COc1ccc(C(=O)Nc2ccc(-c3nc4ccccc4s3)c(Cl)c2)cc1` [Compound 6, N-(4-Benzothiazol-2-yl-3-chloro-phenyl)-4-methoxy-benzamide], for which the EC50 is less than 1 µM.

Turning to `Cc1ccc2nc(-c3ccc(NC(=O)c4ccc(N(C)C)cc4)cc3)sc2c1` [Compound 7, 4-Dimethylamino-N-[4-(6-methyl-benzothiazol-2-yl)-phenyl]-benzamide], the EC50 was less than 1 µM.

As to `Cc1ccc(C(=O)O)c(C(=O)Nc2ccc(-c3nc4ccc(C)cc4s3)cc2)c1` [Compound 8, 4-Methyl-N-[4-(6-methyl-benzothiazol-2-yl)-phenyl]-phthalamic acid], the EC50 was less than 1 µM.

Take `Cc1ccc2nc(-c3ccc(NC(=O)c4cccc(S(=O)(=O)N5CCN(C)CC5)c4)cc3)sc2c1` [Compound 9, N-[4-(6-Methyl-benzothiazol-2-yl)-phenyl]-3-(4-methyl-piperazine-1-sulfonyl)-benzamide]: the concentration for a half-maximal effect (EC50) is less than 1 µM.

Take `CN(C)c1ccccc1C(=O)Nc1ccc(-c2nc3ccccc3s2)cc1` [Compound 10, N-(4-Benzothiazol-2-yl-phenyl)-2-dimethylamino-benzamide]: the EC50 was less than 1 µM.

`COc1ccccc1C(=O)Nc1ccc(-c2nc3ccccc3s2)c(Cl)c1` [Compound 11, N-(4-Benzothiazol-2-yl-3-chloro-phenyl)-2-methoxy-benzamide]: the half-maximal effective concentration (EC50) is less than 1 µM.

As for `Cc1cccc(C(=O)Nc2cccc(-c3nc4ccccc4s3)c2)c1` [Compound 12, N-(3-Benzothiazol-2-yl-phenyl)-3-methyl-benzamide], the concentration for a half-maximal effect (EC50) is 1 to 10 µM.

Turning to `COc1cccc(OC)c1C(=O)Nc1cccc(-c2nc3ccccc3s2)c1` [Compound 13, N-(3-Benzothiazol-2-yl-phenyl)-2,6-dimethoxy-benzamide], the concentration for a half-maximal effect (EC50) lay within 1 to 10 µM.

On to `COc1ccc(C(=O)Nc2ccccc2-c2nc3ccccc3s2)cc1OC` [Compound 14, N-(2-Benzothiazol-2-yl-phenyl)-3,4-dimethoxy-benzamide], for which the concentration for a half-maximal effect (EC50) was in the range of 1 to 10 µM.

Take `COc1ccc(-c2nc3ccccc3s2)cc1NC(=O)c1ccc([N+](=O)[O-])cc1Cl` [Compound 15, N-(5-Benzothiazol-2-yl-2-methoxy-phenyl)-2-chloro-4-nitro-benzamide]: the EC50 lay within 1 to 10 µM.

As to `COc1c(C)cccc1C(=O)Nc1ccccc1-c1nc2ccccc2s1` [Compound 16, N-(2-Benzothiazol-2-yl-phenyl)-2-methoxy-3-methyl-benzamide], the EC50 was in the range of 1 to 10 µM.

Take `O=C(Nc1cccc(-c2nc3ccccc3s2)c1)c1ccc(S(=O)(=O)N2CCCC2)cc1` [Compound 20, N-(3-Benzothiazol-2-yl-phenyl)-4-(pyrrolidine-1-sulfonyl)-benzamide]: the 50% effective concentration (EC50) was 10 to 25 µM.

On to `O=C(Nc1ccc(-c2nc3ccccc3s2)cc1)c1ccccc1F` [Compound 21, N-(4-Benzothiazol-2-yl-phenyl)-2-fluoro-benzamide], for which the EC50 fell in the range of 10 to 25 µM.
